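Test compounds were applied to cells in 96-well plates for 48 hours at 5 doses. The concentration for 50% growth inhibition is given as GI50.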 Activity calls are given as the source filed them. No stated cut-off is given here; in the data, active = GI50 up to about 1.1 µM and inactive = higher.
Legend:
Assay in all cases: NCI tumour cell line growth inhibition, 48 h
U-251 = test system: U-251
SNB-19 = test system: SNB-19
IGROV-1 = test system: IGROV-1
UO-31 = test system: UO-31
OVCAR-8 = test system: OVCAR-8
SK-MEL-5 = test system: SK-MEL-5
SF-295 = test system: SF-295
TK-10 = test system: TK-10
SK-OV-3 = test system: SK-OV-3
SNB-75 = test system: SNB-75
A549 = test system: A549
SR = test system: SR
RPMI-8226 = test system: RPMI-8226
NCI-H460 = test system: NCI-H460
SK-MEL-28 = test system: SK-MEL-28
NCI-H226 = test system: NCI-H226
M14 = test system: M14
OVCAR-4 = test system: OVCAR-4
SF-268 = test system: SF-268
MCF7 = test system: MCF7

SMILES	GI50 (U-251)	GI50 (SNB-19)	GI50 (IGROV-1)	GI50 (UO-31)	GI50 (OVCAR-8)	GI50 (SK-MEL-5)	GI50 (SF-295)	GI50 (TK-10)	GI50 (SK-OV-3)	GI50 (SNB-75)	GI50 (A549)	GI50 (SR)	GI50 (RPMI-8226)	GI50 (NCI-H460)	GI50 (SK-MEL-28)	GI50 (NCI-H226)	GI50 (M14)	GI50 (OVCAR-4)	GI50 (SF-268)	GI50 (MCF7)
CCC(O)(c1ccc(OC)cc1)C(c1ccc(OCc2ccccc2)cc1)c1ccc(OCc2ccccc2)cc1 (centres undefined)	> 100 µM (inactive)	> 100 µM (inactive)	> 100 µM (inactive)	> 100 µM (inactive)	> 100 µM (inactive)	> 100 µM (inactive)	> 100 µM (inactive)	> 100 µM (inactive)	> 100 µM (inactive)	> 100 µM (inactive)	> 100 µM (inactive)	> 100 µM (inactive)	> 100 µM (inactive)	> 100 µM (inactive)	> 100 µM (inactive)	> 100 µM (inactive)	> 100 µM (inactive)	> 100 µM (inactive)	> 100 µM (inactive)	–
CC1=Nc2c(ccc3c2C(=O)c2ccccc2C3=O)NC(c2ccncc2)C1 (centres undefined)	> 10 µM (inactive)	> 10 µM (inactive)	4.94 µM (inactive)	4.72 µM (inactive)	8.55 µM (inactive)	> 100 µM (inactive)	> 10 µM (inactive)	> 100 µM (inactive)	6.49 µM (inactive)	5.96 µM (inactive)	13.3 µM (inactive)	0.135 µM (active)	4.84 µM (inactive)	> 10 µM (inactive)	> 10 µM (inactive)	> 10 µM (inactive)	> 10 µM (inactive)	> 10 µM (inactive)	> 10 µM (inactive)	–
O=C(N/C(=C\c1cccc([N+](=O)[O-])c1)c1nc2c(O)nc(S)nc2[nH]1)c1ccccc1	> 100 µM (inactive)	> 100 µM (inactive)	> 100 µM (inactive)	24.5 µM (inactive)	> 100 µM (inactive)	> 100 µM (inactive)	> 100 µM (inactive)	–	> 100 µM (inactive)	> 100 µM (inactive)	> 100 µM (inactive)	> 100 µM (inactive)	97.1 µM (inactive)	> 100 µM (inactive)	> 100 µM (inactive)	> 100 µM (inactive)	> 100 µM (inactive)	> 100 µM (inactive)	48.2 µM (inactive)	–
Cc1ccccc1NC(=O)C(=O)CC(=O)c1sc(-n2nc(-c3ccccc3)cc2-c2ccccc2)nc1C	> 100 µM (inactive)	> 100 µM (inactive)	> 100 µM (inactive)	> 100 µM (inactive)	> 100 µM (inactive)	–	> 100 µM (inactive)	> 100 µM (inactive)	> 100 µM (inactive)	> 100 µM (inactive)	> 100 µM (inactive)	> 100 µM (inactive)	> 100 µM (inactive)	> 100 µM (inactive)	–	> 100 µM (inactive)	> 100 µM (inactive)	> 100 µM (inactive)	> 100 µM (inactive)	–
COC(=O)c1nn(C(=N)c2ccc(Cl)cc2)c2c1CCC2	> 100 µM (inactive)	> 100 µM (inactive)	> 100 µM (inactive)	> 100 µM (inactive)	> 100 µM (inactive)	> 100 µM (inactive)	> 100 µM (inactive)	> 100 µM (inactive)	> 100 µM (inactive)	> 100 µM (inactive)	> 100 µM (inactive)	14.7 µM (inactive)	> 100 µM (inactive)	> 100 µM (inactive)	> 100 µM (inactive)	> 100 µM (inactive)	> 100 µM (inactive)	> 100 µM (inactive)	> 100 µM (inactive)	–
COC1C=COC2(C)Oc3c(C)c(O)c4c(O)c(c(/C=N/N5CCN(N)CC5)c(O)c4c3C2=O)NC(=O)C(C)=CC=CC(C)C(O)C(C)C(O)C(C)C(OC(C)=O)C1C (centres undefined)	> 100 µM (inactive)	> 100 µM (inactive)	> 100 µM (inactive)	41.7 µM (inactive)	88.3 µM (inactive)	84.3 µM (inactive)	84.3 µM (inactive)	> 100 µM (inactive)	> 100 µM (inactive)	34.7 µM (inactive)	> 100 µM (inactive)	34.1 µM (inactive)	29.7 µM (inactive)	–	34.4 µM (inactive)	> 100 µM (inactive)	> 100 µM (inactive)	70.5 µM (inactive)	62.5 µM (inactive)	–
N=S(=O)(c1ccccc1)c1ccccc1	> 100 µM (inactive)	> 100 µM (inactive)	> 100 µM (inactive)	> 100 µM (inactive)	> 100 µM (inactive)	> 100 µM (inactive)	> 100 µM (inactive)	–	> 100 µM (inactive)	> 100 µM (inactive)	> 100 µM (inactive)	> 100 µM (inactive)	> 100 µM (inactive)	> 100 µM (inactive)	> 100 µM (inactive)	> 100 µM (inactive)	> 100 µM (inactive)	> 100 µM (inactive)	> 100 µM (inactive)	–
CCCOc1nc(N)c2cnn(C3CCCCO3)c2n1 (centres undefined)	> 100 µM (inactive)	> 100 µM (inactive)	> 100 µM (inactive)	> 100 µM (inactive)	> 100 µM (inactive)	> 100 µM (inactive)	> 100 µM (inactive)	–	> 100 µM (inactive)	56.8 µM (inactive)	> 100 µM (inactive)	> 100 µM (inactive)	> 100 µM (inactive)	> 100 µM (inactive)	> 100 µM (inactive)	> 100 µM (inactive)	> 100 µM (inactive)	> 100 µM (inactive)	> 100 µM (inactive)	–
S=C(S)NCC1CCC(CNC(=S)S)CC1 (centres undefined)	20.1 µM (inactive)	> 100 µM (inactive)	18.3 µM (inactive)	30.9 µM (inactive)	20.9 µM (inactive)	87.9 µM (inactive)	> 100 µM (inactive)	22.6 µM (inactive)	> 100 µM (inactive)	34.9 µM (inactive)	> 100 µM (inactive)	–	9.18 µM (inactive)	70.5 µM (inactive)	56.2 µM (inactive)	–	82.8 µM (inactive)	42.8 µM (inactive)	39.2 µM (inactive)	17.9 µM (inactive)
CCCCn1c(CSc2ccc(Cl)cc2)c(C(=O)OCC)c2cc(OC)c(Br)cc21	> 100 µM (inactive)	> 100 µM (inactive)	> 100 µM (inactive)	> 100 µM (inactive)	> 100 µM (inactive)	> 100 µM (inactive)	> 100 µM (inactive)	> 100 µM (inactive)	> 100 µM (inactive)	> 100 µM (inactive)	> 100 µM (inactive)	88.7 µM (inactive)	> 100 µM (inactive)	> 100 µM (inactive)	> 100 µM (inactive)	> 100 µM (inactive)	> 100 µM (inactive)	> 100 µM (inactive)	> 100 µM (inactive)	–
COc1cc2c[n+](C)c3c4cc(OC)c(OC(C)C)cc4ccc3c2cc1OC	29.6 µM (inactive)	51.8 µM (inactive)	45.1 µM (inactive)	> 100 µM (inactive)	35.4 µM (inactive)	23.4 µM (inactive)	> 100 µM (inactive)	> 100 µM (inactive)	> 100 µM (inactive)	44.9 µM (inactive)	77.6 µM (inactive)	43.2 µM (inactive)	36.2 µM (inactive)	75.3 µM (inactive)	57.7 µM (inactive)	98.4 µM (inactive)	84.9 µM (inactive)	62.7 µM (inactive)	47 µM (inactive)	–
CC(C)(C)/C(O)=C\c1nc2ccc(C(F)(F)F)cc2[nH]c1=O	> 100 µM (inactive)	> 100 µM (inactive)	> 100 µM (inactive)	> 100 µM (inactive)	> 100 µM (inactive)	> 100 µM (inactive)	> 100 µM (inactive)	> 100 µM (inactive)	> 100 µM (inactive)	> 100 µM (inactive)	> 100 µM (inactive)	> 100 µM (inactive)	> 100 µM (inactive)	–	> 100 µM (inactive)	> 100 µM (inactive)	> 100 µM (inactive)	> 100 µM (inactive)	> 100 µM (inactive)	–
CC(C)(C)C(=O)/C=C/c1cccc(Oc2ccccc2)c1	11.3 µM (inactive)	15.5 µM (inactive)	28.2 µM (inactive)	14.4 µM (inactive)	13.6 µM (inactive)	14.4 µM (inactive)	11.8 µM (inactive)	> 10 µM (inactive)	41 µM (inactive)	12.4 µM (inactive)	21.1 µM (inactive)	4.2 µM (inactive)	3.94 µM (inactive)	16 µM (inactive)	16.4 µM (inactive)	18.2 µM (inactive)	18.6 µM (inactive)	–	> 10 µM (inactive)	–
CCN(CC)c1c(-c2c(OC(C)C)c(=O)c2=O)c(=O)n2ccsc2c1OC(C)=O	> 100 µM (inactive)	> 100 µM (inactive)	89.9 µM (inactive)	> 100 µM (inactive)	> 100 µM (inactive)	> 100 µM (inactive)	> 100 µM (inactive)	> 100 µM (inactive)	> 100 µM (inactive)	5.13 µM (inactive)	–	> 100 µM (inactive)	34.8 µM (inactive)	> 100 µM (inactive)	> 100 µM (inactive)	> 100 µM (inactive)	> 100 µM (inactive)	> 100 µM (inactive)	> 100 µM (inactive)	–
CN(c1n[n+]2c(-c3ccccc3)csc2s1)c1n[n+]2c(-c3ccccc3)csc2s1	–	> 100 µM (inactive)	> 100 µM (inactive)	> 100 µM (inactive)	> 100 µM (inactive)	89.5 µM (inactive)	> 100 µM (inactive)	> 100 µM (inactive)	> 100 µM (inactive)	> 100 µM (inactive)	> 100 µM (inactive)	61.5 µM (inactive)	> 100 µM (inactive)	> 100 µM (inactive)	> 100 µM (inactive)	> 100 µM (inactive)	> 100 µM (inactive)	> 100 µM (inactive)	> 100 µM (inactive)	–

Source: ChEMBL document CHEMBL1201862, “PubChem BioAssay data set” (2004)
